Assay [1] has as its target cysteines in MDA-MB-231 and Ramos cells (Homo sapiens, UniProt Q14997). Kind of assay: Competitive isoTOP-ABPP in situ (fragment-treated cells). The class given is cell-based. The note with it: 200 μM, insitu, 231.
Assay [2] concerns the target cysteines in MDA-MB-231 and Ramos cells (Homo sapiens, UniProt Q16831). The description is as above. The note with it: 200 μM, insitu, 231. The class given is cell-based.
In assay [3] the target is T1, cysteines in MDA-MB-231 and Ramos cells (Homo sapiens, UniProt Q86SX6).
T1 sequence (Q86SX6 32-157): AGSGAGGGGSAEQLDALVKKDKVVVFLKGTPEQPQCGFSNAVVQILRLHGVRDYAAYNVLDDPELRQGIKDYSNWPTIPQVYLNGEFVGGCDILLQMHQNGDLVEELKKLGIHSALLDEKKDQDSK
The assay is described as above. The format is cell-based. The note with it: 200 μM, insitu, 231.

For assay [4], the target named is T2, MGMT C145 (P16455) (Homo sapiens, UniProt P16455).
T2 sequence (P16455 1-207): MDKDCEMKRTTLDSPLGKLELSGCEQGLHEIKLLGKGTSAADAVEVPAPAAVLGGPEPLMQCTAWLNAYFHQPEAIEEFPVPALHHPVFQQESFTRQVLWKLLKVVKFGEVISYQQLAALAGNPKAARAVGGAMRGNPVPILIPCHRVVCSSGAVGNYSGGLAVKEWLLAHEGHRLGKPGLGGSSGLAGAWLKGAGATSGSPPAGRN
Kind of assay: Competitive isoTOP-ABPP, cell lysates. The format is binding. The note with it: for isoTOP-ABPP ratio (reactivity profile), P16455_C145: 500 μm in-vitro ramos.

Assay [5] deals with RRAGC C358 (Q9HB90) (Homo sapiens, UniProt Q9HB90). Description: Competitive isoTOP-ABPP, cell lysates. The note with it: for R value (DMSO/fragment) / isoTOP-ABPP ratio, Q9HB90_C358: 500 μM; for isoTOP-ABPP ratio, Q9HB90_C358: 231. The class given is binding.
Assay [6] concerns the target LRBA C2675 (P50851) (Homo sapiens, UniProt P50851). Description: Competitive isoTOP-ABPP, cell lysates. The format is binding.
In assay [7] the target is EZH2 C503 (Q15910) (Homo sapiens, UniProt Q15910). Kind of assay: Competitive isoTOP-ABPP, cell lysates. The format is binding.
EZH2 C503 (Q15910), sequence (Q15910 whole entry): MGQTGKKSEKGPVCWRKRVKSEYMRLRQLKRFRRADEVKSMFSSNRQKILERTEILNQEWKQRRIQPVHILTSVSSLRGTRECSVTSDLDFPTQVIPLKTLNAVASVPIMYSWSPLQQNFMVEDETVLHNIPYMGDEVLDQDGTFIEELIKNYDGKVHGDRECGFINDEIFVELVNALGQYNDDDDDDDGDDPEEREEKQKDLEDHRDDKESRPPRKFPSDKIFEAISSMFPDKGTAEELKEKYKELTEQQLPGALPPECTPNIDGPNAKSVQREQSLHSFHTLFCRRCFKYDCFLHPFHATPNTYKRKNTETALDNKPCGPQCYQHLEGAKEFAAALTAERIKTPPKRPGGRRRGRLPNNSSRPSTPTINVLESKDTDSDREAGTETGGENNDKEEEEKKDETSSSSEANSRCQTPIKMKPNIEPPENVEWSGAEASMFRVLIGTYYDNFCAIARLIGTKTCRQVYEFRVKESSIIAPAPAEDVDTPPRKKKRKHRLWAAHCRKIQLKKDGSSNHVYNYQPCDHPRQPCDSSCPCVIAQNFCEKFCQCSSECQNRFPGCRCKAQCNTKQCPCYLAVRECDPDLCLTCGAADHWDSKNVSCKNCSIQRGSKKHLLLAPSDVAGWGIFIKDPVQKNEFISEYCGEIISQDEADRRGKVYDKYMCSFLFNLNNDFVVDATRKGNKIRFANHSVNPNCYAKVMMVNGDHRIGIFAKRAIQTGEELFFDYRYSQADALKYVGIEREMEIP
EZH2 C503 (Q15910), sequence (O75530 whole entry partner): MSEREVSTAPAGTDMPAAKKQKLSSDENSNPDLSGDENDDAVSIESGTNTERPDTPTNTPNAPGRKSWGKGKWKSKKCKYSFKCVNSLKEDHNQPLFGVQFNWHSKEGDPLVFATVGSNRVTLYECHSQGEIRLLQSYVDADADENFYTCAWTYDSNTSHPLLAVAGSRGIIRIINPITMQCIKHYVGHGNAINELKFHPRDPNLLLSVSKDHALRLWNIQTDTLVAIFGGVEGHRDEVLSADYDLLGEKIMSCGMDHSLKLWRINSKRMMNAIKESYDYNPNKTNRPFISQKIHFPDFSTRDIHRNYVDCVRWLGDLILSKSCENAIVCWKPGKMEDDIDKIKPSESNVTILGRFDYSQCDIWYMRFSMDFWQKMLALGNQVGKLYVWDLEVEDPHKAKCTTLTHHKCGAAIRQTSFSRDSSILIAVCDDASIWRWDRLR
EZH2 C503 (Q15910), sequence (Q15022 whole entry partner): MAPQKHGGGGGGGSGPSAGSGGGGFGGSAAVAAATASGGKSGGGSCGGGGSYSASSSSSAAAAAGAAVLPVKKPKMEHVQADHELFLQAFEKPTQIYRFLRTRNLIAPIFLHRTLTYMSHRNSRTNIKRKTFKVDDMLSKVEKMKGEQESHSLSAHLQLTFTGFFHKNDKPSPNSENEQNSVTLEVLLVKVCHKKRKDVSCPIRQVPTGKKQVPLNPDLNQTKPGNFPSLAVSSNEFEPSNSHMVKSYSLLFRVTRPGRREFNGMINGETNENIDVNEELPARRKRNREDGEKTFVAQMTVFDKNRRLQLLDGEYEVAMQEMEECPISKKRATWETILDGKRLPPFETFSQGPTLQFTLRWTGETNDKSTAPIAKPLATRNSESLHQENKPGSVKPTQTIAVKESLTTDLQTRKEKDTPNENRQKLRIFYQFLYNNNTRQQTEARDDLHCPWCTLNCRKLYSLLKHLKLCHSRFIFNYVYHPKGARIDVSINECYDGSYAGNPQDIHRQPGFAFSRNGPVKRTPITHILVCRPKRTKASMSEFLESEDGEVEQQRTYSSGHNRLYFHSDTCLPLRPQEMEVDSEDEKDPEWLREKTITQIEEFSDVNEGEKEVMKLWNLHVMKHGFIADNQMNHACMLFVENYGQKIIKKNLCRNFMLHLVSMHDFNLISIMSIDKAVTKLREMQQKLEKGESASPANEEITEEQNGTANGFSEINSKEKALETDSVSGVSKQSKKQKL
Assay [8] concerns the target PFKFB4 C159 (Q16877) (Homo sapiens, UniProt Q16877). Kind of assay: Competitive isoTOP-ABPP, cell lysates. The note with it: for isoTOP-ABPP ratio (reactivity profile), Q16877_C159: 500 μm in-vitro ramos. The class given is binding.
In assay [9] the target is T3, cysteines in MDA-MB-231 and Ramos cells (Homo sapiens, UniProt Q15233).
T3 sequence (Q15233 1-471): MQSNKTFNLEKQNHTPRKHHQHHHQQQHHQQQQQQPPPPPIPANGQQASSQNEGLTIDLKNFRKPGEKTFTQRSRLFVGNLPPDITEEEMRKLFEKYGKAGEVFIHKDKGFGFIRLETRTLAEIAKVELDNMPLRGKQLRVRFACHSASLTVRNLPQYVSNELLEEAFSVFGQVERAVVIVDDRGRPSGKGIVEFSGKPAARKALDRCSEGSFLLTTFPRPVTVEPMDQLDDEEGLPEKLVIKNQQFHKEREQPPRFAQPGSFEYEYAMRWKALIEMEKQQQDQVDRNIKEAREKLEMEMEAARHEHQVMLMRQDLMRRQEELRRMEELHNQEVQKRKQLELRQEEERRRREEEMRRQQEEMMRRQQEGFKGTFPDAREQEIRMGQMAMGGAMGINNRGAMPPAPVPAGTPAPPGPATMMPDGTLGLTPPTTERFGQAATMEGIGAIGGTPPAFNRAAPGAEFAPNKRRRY
Description: Competitive isoTOP-ABPP in situ (fragment-treated cells). The class given is cell-based. As to conditions: 200 μM, insitu, 231.

PFKFB4 C159 (Q16877), sequence (Q16877 whole entry): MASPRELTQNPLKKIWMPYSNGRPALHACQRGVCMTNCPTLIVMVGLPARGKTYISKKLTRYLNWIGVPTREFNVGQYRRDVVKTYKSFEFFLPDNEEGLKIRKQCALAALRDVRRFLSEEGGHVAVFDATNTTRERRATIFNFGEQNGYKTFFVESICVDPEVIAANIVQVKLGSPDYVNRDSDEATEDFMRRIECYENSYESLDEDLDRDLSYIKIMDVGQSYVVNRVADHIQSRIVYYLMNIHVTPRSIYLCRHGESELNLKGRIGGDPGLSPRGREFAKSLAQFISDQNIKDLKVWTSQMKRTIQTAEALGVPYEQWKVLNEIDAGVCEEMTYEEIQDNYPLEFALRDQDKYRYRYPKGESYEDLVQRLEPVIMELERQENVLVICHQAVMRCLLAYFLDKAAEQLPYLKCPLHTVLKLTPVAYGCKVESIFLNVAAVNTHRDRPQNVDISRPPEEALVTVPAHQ
cysteines in MDA-MB-231 and Ramos cells (Homo sapiens, UniProt Q16831), sequence (Q16831 whole entry): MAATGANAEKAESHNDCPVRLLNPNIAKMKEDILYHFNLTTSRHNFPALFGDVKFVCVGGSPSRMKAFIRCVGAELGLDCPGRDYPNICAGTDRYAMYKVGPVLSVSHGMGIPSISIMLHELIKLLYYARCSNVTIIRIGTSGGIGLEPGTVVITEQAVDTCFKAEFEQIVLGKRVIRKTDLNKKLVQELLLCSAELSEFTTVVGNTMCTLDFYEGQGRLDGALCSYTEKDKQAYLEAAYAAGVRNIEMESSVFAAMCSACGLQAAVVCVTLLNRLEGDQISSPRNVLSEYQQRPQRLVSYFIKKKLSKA
cysteines in MDA-MB-231 and Ramos cells (Homo sapiens, UniProt Q14997), sequence (Q14997 whole entry, the tested form may be a part): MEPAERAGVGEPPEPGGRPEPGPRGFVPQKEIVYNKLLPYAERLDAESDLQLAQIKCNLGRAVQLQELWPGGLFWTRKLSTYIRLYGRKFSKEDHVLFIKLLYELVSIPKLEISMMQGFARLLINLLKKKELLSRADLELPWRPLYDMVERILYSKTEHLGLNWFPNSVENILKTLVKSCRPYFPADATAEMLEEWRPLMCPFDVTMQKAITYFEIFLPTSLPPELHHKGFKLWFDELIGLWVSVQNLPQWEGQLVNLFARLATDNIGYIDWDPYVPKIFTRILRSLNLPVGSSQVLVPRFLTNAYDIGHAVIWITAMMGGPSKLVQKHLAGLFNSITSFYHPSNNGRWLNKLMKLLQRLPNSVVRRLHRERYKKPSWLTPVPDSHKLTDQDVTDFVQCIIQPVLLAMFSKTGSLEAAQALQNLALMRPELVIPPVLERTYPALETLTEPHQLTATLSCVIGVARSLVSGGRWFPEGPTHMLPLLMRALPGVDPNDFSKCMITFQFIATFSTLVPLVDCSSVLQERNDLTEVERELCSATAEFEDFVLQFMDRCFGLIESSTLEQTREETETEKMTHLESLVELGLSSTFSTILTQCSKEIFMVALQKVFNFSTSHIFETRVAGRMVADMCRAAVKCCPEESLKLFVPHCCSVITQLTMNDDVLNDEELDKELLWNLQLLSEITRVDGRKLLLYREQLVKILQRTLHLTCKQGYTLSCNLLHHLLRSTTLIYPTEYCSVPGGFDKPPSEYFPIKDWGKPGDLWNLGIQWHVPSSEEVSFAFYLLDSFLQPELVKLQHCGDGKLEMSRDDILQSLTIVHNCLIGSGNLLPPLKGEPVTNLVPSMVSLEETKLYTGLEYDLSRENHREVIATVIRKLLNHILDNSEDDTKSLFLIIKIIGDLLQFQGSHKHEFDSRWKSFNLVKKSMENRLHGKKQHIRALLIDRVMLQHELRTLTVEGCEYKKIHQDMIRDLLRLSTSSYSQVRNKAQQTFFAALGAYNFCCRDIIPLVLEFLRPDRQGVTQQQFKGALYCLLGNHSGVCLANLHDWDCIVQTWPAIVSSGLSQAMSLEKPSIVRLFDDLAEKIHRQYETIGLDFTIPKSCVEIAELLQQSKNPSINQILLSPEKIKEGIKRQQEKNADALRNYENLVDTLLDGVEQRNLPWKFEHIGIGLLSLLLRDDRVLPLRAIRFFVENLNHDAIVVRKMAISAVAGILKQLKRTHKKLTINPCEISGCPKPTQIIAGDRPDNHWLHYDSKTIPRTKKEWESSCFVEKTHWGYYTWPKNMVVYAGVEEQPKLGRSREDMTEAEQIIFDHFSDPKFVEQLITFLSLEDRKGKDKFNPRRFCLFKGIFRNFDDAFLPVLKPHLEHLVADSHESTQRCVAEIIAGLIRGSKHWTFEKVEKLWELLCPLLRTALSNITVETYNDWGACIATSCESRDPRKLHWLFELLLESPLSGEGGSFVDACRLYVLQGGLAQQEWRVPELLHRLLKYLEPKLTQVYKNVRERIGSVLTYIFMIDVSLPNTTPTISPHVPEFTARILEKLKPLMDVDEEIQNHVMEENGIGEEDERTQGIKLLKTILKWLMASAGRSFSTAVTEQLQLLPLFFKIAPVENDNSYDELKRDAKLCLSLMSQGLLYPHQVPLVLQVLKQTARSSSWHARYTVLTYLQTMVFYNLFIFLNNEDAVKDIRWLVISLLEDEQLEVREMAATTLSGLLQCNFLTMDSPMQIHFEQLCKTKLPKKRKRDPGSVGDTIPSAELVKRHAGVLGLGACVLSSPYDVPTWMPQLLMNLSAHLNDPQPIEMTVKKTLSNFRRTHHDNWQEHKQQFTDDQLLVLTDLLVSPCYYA

`COc1ccc2c(c1)CCCN2C(=O)CCl` [compound 2]: the “isoTOP-ABPP reactivity Q14997_C1840 PSME4” value in assay [1] stood at 2.8. Besides, the “isoTOP-ABPP reactivity Q16831_C162 UPP1” value in [2] worked out at 1.2. In addition, the “isoTOP-ABPP reactivity Q865X6_C67 GLRX5” value in [3] came to 1.1. The “R value (DMSO/fragment)” value is given as 20.0 in [4] (500 μM, invitro, ramos); 20.0 in [5] (in vitro, MDA-MB-231); 20.0 in assay [5] (invitro, ramos); 3.0 in assay [6] (500 μM, invitro, ramos); 2.8 in assay [7] (500 μM, invitro, ramos).

With `C=CC(=O)N(c1ccccc1)c1ccc(Br)cc1` [compound 5], the “isoTOP-ABPP ratio, P16455_C145” value in assay [4] (500 μM, invitro, ramos) was determined as 2.0. Besides, the “isoTOP-ABPP ratio, Q16877_C159” value in assay [8] (500 μM, invitro, ramos) is reported as 20.0. For the same molecule, the “isoTOP-ABPP ratio, P50851_C2675” value in assay [6] (500 μM, invitro, ramos) amounted to 20.0. The “isoTOP-ABPP ratio, Q15910_C503” value in [7] (500 μM, invitro, ramos) was found to be 20.0.

As for `CNS(=O)(=O)C=Cc1ccc2c(ccn2Cc2ccccc2)c1` [compound 6], the “isoTOP-ABPP ratio, Q9HB90_C358” value in [5] (invitro) is on record as 1.2. For the same molecule, the “isoTOP-ABPP ratio, Q15910_C503” value in [7] (500 μM, invitro, 231) was 1.8.

Take `COc1cc2c(cc1OC)CN(C(=O)CCl)CC2` [compound 8]: in [1], the “isoTOP-ABPP reactivity Q14997_C1840 PSME4” value came out at 20.0. Moreover, the “isoTOP-ABPP reactivity Q16831_C162 UPP1” value in [2] worked out at 20.0. In addition, the “isoTOP-ABPP reactivity Q15233_C145 NONO” value in assay [9] is 12.0. Also, in assay [3], the “isoTOP-ABPP reactivity Q865X6_C67 GLRX5” value was determined as 1.0.

Regarding `O=C(CCl)N1CCC(Cc2ccccc2)CC1` [compound 9], the “isoTOP-ABPP reactivity Q16831_C162 UPP1” value in assay [2] is reported as 7.7. For the same molecule, the “isoTOP-ABPP reactivity Q15233_C145 NONO” value in assay [9] amounted to 1.4. For the same molecule, the “isoTOP-ABPP reactivity Q865X6_C67 GLRX5” value in assay [3] is 5.1.

Regarding `O=C(CCl)NC(=O)NC12CC3CC(CC(C3)C1)C2` [compound 12], the “isoTOP-ABPP ratio Q14997_C1840” value in assay [1] is recorded as 20.0. The “isoTOP-ABPP ratio Q16831_C162” value in assay [2] is 0.9. Further, in [9], the “isoTOP-ABPP ratio Q15233_C145” value is 2.4. Besides, the “isoTOP-ABPP ratio Q86SX6_C67” value in assay [3] is listed as 1.6. In addition, in assay [6] (500 μM, invitro, ramos), the “isoTOP-ABPP ratio, P50851_C2675” value is 1.5.

On to `C=CC(=O)N(Cc1cccnc1)c1ccc(Oc2ccccc2)c(C(F)(F)F)c1` [compound 15], for which, in assay [4], the “isoTOP-ABPP ratio (reactivity profile), P16455_C145” value was 1.3. In addition, in assay [5] (invitro), the “isoTOP-ABPP ratio, Q9HB90_C358” value worked out at 1.1. For the same molecule, the “isoTOP-ABPP ratio (reactivity profile), P50851_C2675” value in assay [6] (500 μm in-vitro ramos) came to 1.6. In addition, the “isoTOP-ABPP ratio, Q15910_C503” value in [7] (500 μM, invitro, 231) is on record as 0.8.

For the molecule `O=C(CCl)N1CCC(C(O)(c2ccccc2)c2ccccc2)CC1` [compound 20], in [4], the “isoTOP-ABPP ratio (reactivity profile), P16455_C145” value was found to be 20.0. The “isoTOP-ABPP ratio (reactivity profile), Q16877_C159” value in assay [8] amounted to 1.0.

Turning to `O=C(CCl)N1CCOCC1` [compound 22], the “isoTOP-ABPP ratio (reactivity profile), Q9HB90_C358” value in assay [5] (500 μm in-vitro ramos_231) came to 1.7. Also, the “isoTOP-ABPP ratio (reactivity profile), P50851_C2675” value in assay [6] (500 μm in-vitro ramos) and in [6] (500 μm in-vitro ramos_231) was 1.1 in each case.

Consider `N#C/C(=C\c1cc(C(F)(F)F)cc(C(F)(F)F)c1)C(N)=O` [compound 23], for which, in assay [4], the “isoTOP-ABPP ratio (reactivity profile), P16455_C145” value is reported as 1.0. Also, the “isoTOP-ABPP ratio (reactivity profile), Q16877_C159” value in assay [8] amounted to 1.0. Also, the “isoTOP-ABPP ratio (reactivity profile), P50851_C2675” value in assay [6] (500 μm in-vitro ramos) is listed as 2.6. Further, the “isoTOP-ABPP ratio (reactivity profile), Q15910_C503” value in assay [7] (500 μm in-vitro ramos) was found to be 2.0.

`CC(Br)C(=O)Nc1cc(C(F)(F)F)cc(C(F)(F)F)c1` (stereo not drawn) [compound 24]: the “isoTOP-ABPP ratio (reactivity profile), P16455_C145” value in [4] was 20.0. For the same molecule, the “isoTOP-ABPP ratio (reactivity profile), Q9HB90_C358” value in assay [5] (500 μm in-vitro ramos) turned out to be 0.9. Also, in assay [6] (500 μm in-vitro ramos), the “isoTOP-ABPP ratio (reactivity profile), P50851_C2675” value is reported as 1.0. Further, the “isoTOP-ABPP ratio (reactivity profile), Q15910_C503” value in assay [7] (500 μm in-vitro ramos) was 1.3.

In the case of `CC(Cl)C(=O)Nc1cc(C(F)(F)F)cc(C(F)(F)F)c1` (stereo not drawn) [compound 25], in assay [5] (500 μm in-vitro ramos_231), the “isoTOP-ABPP ratio (reactivity profile), Q9HB90_C358” value is 0.9. Besides, the “isoTOP-ABPP ratio (reactivity profile), Q15910_C503” value in [7] (500 μm in-vitro ramos_231) amounted to 0.8.

Turning to `O=C(/C=C/c1ccccc1)Nc1cc(C(F)(F)F)cc(C(F)(F)F)c1` [compound 26], the “isoTOP-ABPP ratio (reactivity profile), P50851_C2675” value in assay [6] (500 μm in-vitro ramos) is reported as 0.9.

Take `CC(C)CCOCCNC(=O)CCl` [compound 27]: the “isoTOP-ABPP ratio Q14997_C1840” value in assay [1] came out at 20.0. For the same molecule, the “isoTOP-ABPP ratio Q16831_C162” value in [2] is given as 0.5. For the same molecule, the “isoTOP-ABPP ratio Q15233_C145” value in assay [9] was 1.2. Further, in [3], the “isoTOP-ABPP ratio Q86SX6_C67” value is 1.5. The “isoTOP-ABPP ratio (reactivity profile), P16455_C145” value in [4] was 20.0. Moreover, in [5] (500 μm in-vitro ramos_231), the “isoTOP-ABPP ratio (reactivity profile), Q9HB90_C358” value came out at 0.3.

In the case of `COc1ccccc1OCCNC(=O)CCl` [compound 28], the “isoTOP-ABPP ratio Q14997_C1840” value in [1] came to 0.9. In addition, the “isoTOP-ABPP ratio Q16831_C162” value in assay [2] came out at 0.7. For the same molecule, the “isoTOP-ABPP ratio Q15233_C145” value in [9] came to 1.1. In addition, the “isoTOP-ABPP ratio (reactivity profile), P16455_C145” value in assay [4] worked out at 20.0. The “isoTOP-ABPP ratio (reactivity profile), Q9HB90_C358” value in [5] (500 μm in-vitro ramos_231) is on record as 1.1.
